Source: ChEMBL document CHEMBL3507680, “University of Dundee, Gates Library screen for HepG2 cell viability”

experiment: Human HepG2 cell viability assay in 384 well format; format: toxicity, cell-based; parameters: dose 125 nL, time 70.5 hour; concentration not given beside the values; conditions: HepG2 cells, read-out: Inhibition

| SMILES | cytotoxicity at 70.5 h [%] |
| --- | --- |
| CCc1nc(CN(C(C)=O)C2CCN(Cc3cnc(C)cn3)C2)no1 (centres undefined) | 23.6 |
| NC(=O)CCn1ccc(NC(=O)C2(c3ccc(F)cc3)CCC2)n1 | 1.99 |
| COc1ccccc1CC(C)(C)C(=O)NCC(=O)Nc1cccnc1 | 3.9 |
| CCC(Nc1nccc(C2CCCC2)n1)c1ccccn1 (centres undefined) | -3.14 |
| CCc1nsc(NC2CC(=O)N(C3CC3)C2)n1 (centres undefined) | -0.811 |
| c1cncc(OC[C@@]23CCC[C@@H]2CN(C2CCOCC2)C3)c1 | -1.53 |
| COc1cccc([C@@H]2N[C@H](c3nccs3)Cc3ccsc32)c1OC | -12.9 |
| CCOc1ccc(CN2CCN(CCOC)[C@@H]3CS(=O)(=O)C[C@@H]32)cc1 | 5.04 |
| O=C(Nc1ccccc1F)N1CCN(Cc2noc(C3CC3)n2)CC1 | -10.2 |
| Cc1noc([C@@]23CCO[C@@H]2CCN(C(=O)c2cc(C)c(C)s2)C3)n1 | -0.38 |
| CN(Cc1n[nH]c2c1CCC2)C(=O)CCc1cc2n(n1)CCNC2 | -4.27 |
| CC(C)NC(=O)CCNC(=O)c1cc(F)ccc1NS(C)(=O)=O | 15.1 |
| CCN(CC)c1nc(Nc2cccc(C(=O)O)c2)nc2ccccc12 | -11.2 |
| CCc1nc2c(c(NC3CCC3)n1)CCN(C(=O)CO)CC2 | 0.47 |
| OC1(CN2CCCC2)CCCN(c2ncnc3[nH]cnc23)C1 (centres undefined) | -2.89 |
| CCc1ccc(CN2CCC3(CC(C(=O)NCC(C)C)=NO3)C2)o1 (centres undefined) | -7.77 |
| CN(Cc1ccco1)[C@@H]1CN(Cc2ccoc2)C[C@@H]2CCCO[C@@H]21 | -7.61 |
| COc1ccc2c3c1CN(C(=O)N(C)C)CC3=CC(C)(C)CO2 | -6.85 |
| Cn1ccnc1CN1CCC2(CC1)CC(N1CCCC1)c1ccccc12 (centres undefined) | -4.57 |
| O=C(NCCc1[nH]nc2c1CCCC2)C1CCCN(Cc2ccco2)C1 (centres undefined) | -2.55 |
| COCCNc1nc2c(c(N3CCn4nc(C)cc4C3)n1)CCNCC2 | -8.96 |
| O=C(c1ccncc1)N1CC[C@H]2[C@H]1CCN2S(=O)(=O)C1CC1 | -5.53 |
| CN1CCCC1CCn1ccnc1-c1nc(-c2ccccc2)no1 (centres undefined) | 16.5 |

| SMILES | cytotoxicity at 70.5 h [%] |
| --- | --- |
| CCN1CC2(CCN(CCOCCO)CC2)CC(c2ccccc2)C1=O (centres undefined) | 3.81 |
| c1cc(CN2CCO[C@@H]3CNC[C@@H]32)co1 | 3.81 |
| NC(=O)C1CCN(c2nc3nccc(-c4ccccc4)c3c(=O)[nH]2)CC1 | -13.2 |
| CC1CCN(C(=O)c2cccc3ncccc23)CC1 | 4.77 |
| CNS(=O)(=O)CCCN1CCN(C(C#N)c2ccccc2)CC1 (centres undefined) | -11.2 |
| O=C(Nc1ccccc1)N1C(CN2CCOCC2)[C@]2(O)CC[C@H]1CC2 (some centres undefined) | -2.88 |
| CN(CCC#N)C(=O)CN1CCCC1c1cccs1 (centres undefined) | -4.47 |
| CC(C)CC(=O)NCCCc1cc(N)n(-c2ccccc2)n1 | 4.65 |
| N#Cc1cnn(CCN2CCOC(CNc3cccnn3)C2)c1 (centres undefined) | 4.89 |
| Cc1cc(NCc2csc(C)n2)no1 | -4.29 |
| CC(C)(NCC(=O)NCCC#N)c1ccc2c(c1)OCCO2 | -10.6 |
| CCC(CO)N(C/C(C)=C/c1ccco1)Cc1ccco1 (centres undefined) | -3.88 |
| COc1ccc(NC(=O)COc2nn(C)c3nc(C)cc(C)c23)cn1 | -18.4 |
| CC(=O)NCC(=O)NC1CCc2c(ccc(=O)n2CC2CC2)C1 (centres undefined) | -1.98 |
| NC(=O)c1cccc(CN2CCc3c(ncn3C3CC3)C2)c1 | 23.7 |
| O=C(c1ccc(C2CCCO2)s1)N1CCCOCC1 (centres undefined) | -8.57 |
| c1coc(-c2noc(CN3CCC(c4ccn[nH]4)CC3)n2)c1 | -8.33 |
| Cc1nc(C2CCCN2Cc2ncc(C(C)C)o2)no1 (centres undefined) | 42.3 |
| Cc1ccc(S(=O)(=O)NC(CO)CC(C)C)cc1N(C)C (centres undefined) | -3.97 |
| Cc1nc(Nc2cnccn2)cc(C2CCCN2)n1 (centres undefined) | 19.5 |
| COc1ccc(-c2nc(CNC(C)Cn3cccn3)cs2)cc1 (centres undefined) | -12.5 |
| Cc1ccc(NC2(C(=O)NC(C)c3ncn[nH]3)CCCC2)cc1 (centres undefined) | 6.6 |
| CCCNC(=O)C1(Cc2cc(-c3ccccc3)no2)CCN(C(C)=O)C1 (centres undefined) | 3.68 |

| SMILES | cytotoxicity at 70.5 h [%] |
| --- | --- |
| O=C(c1c[nH]c2ncccc12)N1CCC(COc2ccccc2)CC1 | 10.4 |
| Cc1cnc(C(C)(C)NC(=O)NCc2ccon2)s1 | -9.99 |
| CN1CC2(CCN(CC3CC3)CC2)COc2ccccc2S1(=O)=O | -1.33 |
| CC(=O)N1CCC(N2C[C@@H](F)[C@@H](OCc3nc4ncccc4[nH]3)C2)CC1 | -2.27 |
| Cn1ccnc1C(=O)N[C@@H]1CN(Cc2ccc(F)cc2)[C@@H]2CCCO[C@@H]21 | -3.63 |
| O=C(NCCOc1ccccc1)C1NCCc2[nH]cnc21 (centres undefined) | -7.83 |
| CNC(=O)c1cc2c(nc1NCC(C)C)CCN(S(=O)(=O)C1CC1)CC2 | -6.3 |
| O=C(NCc1ccc(Br)cc1)C1(O)CCSCC1 | -1.14 |
| Cc1cc(CN2CCN(C(=O)NC(C)c3cccnc3)CC2)no1 (centres undefined) | -8.62 |
| O=C(NCc1cn2c(n1)CN(CC1CCOCC1)CC2)C1CCC1 | -2.34 |
| O=C(NCCc1csc(-c2ccncc2)n1)C1CC(=O)N(C2CC2)C1 (centres undefined) | -3.67 |
| COCc1nc(C(=O)N2CCN(c3nccc(OC)n3)CC2)cs1 | 14.1 |
| Cc1ccc(C(=O)N2CCC3(CC2)C(=O)NCCN3C)cc1O | -6.34 |
| COC(=O)CNC(=O)CCc1cc(Cl)cs1 | 6.93 |
| CN(C)CC(=O)N1Cc2nnn(C)c2C(COCc2ccccn2)C1 (centres undefined) | 9.45 |
| CN(C)Cc1noc2c1CN(Cc1ccc[nH]1)CC2 | -1.45 |
| CS(=O)(=O)NC1CCN(C(=O)NCc2ccccn2)CC1 | -2.65 |
| Fc1cccc(CN2CCC(c3noc(-c4ccccn4)n3)CC2)c1F | -0.639 |
| Cc1csc(C(=O)N2CCC(O)(CN3CCc4ccccc4C3)C2)c1 (centres undefined) | -3.4 |
| N#Cc1nccnc1N1CCC(c2nc(C(F)(F)F)c[nH]2)CC1 | -9.24 |
| CC(NC(=O)c1ccc(Cl)cc1)c1nnc(SCC(N)=O)n1C (centres undefined) | -8 |
| Cc1c(NCc2cccnc2)cccc1C(=O)N1CCC(N(C)C)C1 (centres undefined) | -5.39 |
| COc1ccccc1C(C)Nc1ncc(C(N)=O)cc1Cl (centres undefined) | -9.04 |

| SMILES | cytotoxicity at 70.5 h [%] |
| --- | --- |
| O=c1[nH]cc(N2CCOCC2)c(=O)[nH]1 | -0.0513 |
| CN(CCc1nc2ccccc2c(=O)[nH]1)CCC(F)(F)F | -6.6 |
| O=C(c1ccccc1)N1CCO[C@@H]2CNC[C@@H]21 | -5.73 |
| O=C(Cn1nc(-c2ccc(F)cc2)oc1=O)NCc1ccc(F)cc1 | 30.8 |
| COc1ccc(N2Cc3nc(=O)n(Cc4cccc(F)c4)n3C2=O)cc1 | -13 |
| CN(C)C(=O)CN1CCC2(CC1)COc1ccccc1S(=O)(=O)N(C)C2 | 0.16 |
| Cc1nc2ccnn2c(C)c1CCC(=O)N1CCC(C(N)=O)CC1 | 2.4 |
| CCn1nccc1CNC(=O)NC1CCCCC1 | 6.27 |
| CC/C=C(\C)CN1CCC(CNC(=O)c2ccnc(N)c2)C1 (centres undefined) | 15 |
| CC(O)CN1CCc2onc(-c3ccccc3F)c2C1 (centres undefined) | -22.3 |
| CC(=O)c1c(F)cccc1N1CCC(CS(N)(=O)=O)CC1 | -10.5 |
| Cc1cnccc1N1CCN(C(=O)C2CC3(CCNCC3)CN2)CC1 (centres undefined) | -5.99 |
| Cc1n[nH]c(C)c1CCCNCc1cn(CCC(N)=O)c2ccccc12 | -3.31 |
| Cc1csc2c(N3CCC(Cn4cc(C(C)(C)O)nn4)CC3)ncnc12 | -9.53 |
| Cc1ccc(C2CCCN2S(=O)(=O)N(C)CCc2ccccn2)o1 (centres undefined) | 4.42 |
| CN(C)C1CCN(C(=O)c2n[nH]c3c2CCN(CC2CCC2)C3)CC1 | 14.2 |
| c1coc(CN2C[C@@H]3OCCN(CCN4CCCC4)[C@@H]3C2)c1 | -7.43 |
| Cc1ccc(NCCNC(=O)c2cc(CC(C)C)n[nH]2)nn1 | 4.32 |
| CN1CCN(CC2CN(CC3CC3)Cc3nccn3C2)CC1 (centres undefined) | -6.02 |
| Cn1ccnc1CN1CCN(Cc2ccccc2C#N)CC1 | 6.78 |
| O=C(CC1CN(Cc2ccccc2)CCO1)Nc1ccccc1F (centres undefined) | -3.6 |
| Cc1cnn(CC(=O)N(CC2CN(C)CCO2)c2nccs2)c1 (centres undefined) | -14.4 |
| Cn1nc(C2CCCN(C(=O)CO)C2)cc1O (centres undefined) | 19.8 |

| SMILES | cytotoxicity at 70.5 h [%] |
| --- | --- |
| Cc1c(C(=O)N2CCCC(n3cccn3)C2)nnn1-c1ccccc1 (centres undefined) | -2.31 |
| Cc1cccc(CC(=O)Nc2cccnc2N2CCC(CO)CC2)c1 | -2.43 |
| COc1ccc(CN2CCCn3nnc(COCC4CC4)c3C2)cc1 | -12.2 |
| CC(C(=O)NCc1ccnc(N2CCCC2)c1)n1cncn1 (centres undefined) | -1.47 |
| CN(C)C(=O)C1CCCN1CCCNC(=O)c1ccccc1Cl (centres undefined) | 4.52 |
| CC(C)N1CCCC(C(=O)NCc2noc(Cc3ccccc3)n2)C1 (centres undefined) | 8.23 |
| CCc1nc(CN(C(C)=O)C2CCN(CCc3ccncc3)C2)no1 (centres undefined) | 11.6 |
| O=C(O)CCn1ccc(=O)c2cc(F)ccc21 | -11.9 |
| CCC(CNC(=O)C1CCC1)(OC)c1ccccc1 (centres undefined) | -1.73 |
| O=S(=O)(c1ccc(F)cc1)N1CCOC[C@H](Oc2cnccn2)C1 | 12.5 |
| CC(C)CN1CCN(C(=O)c2[nH]nnc2Nc2ccccc2F)CC1 | 8.05 |
| CCCSCC(=O)Nc1ncn(CC(=O)N2CCCCCC2)n1 | -1.09 |
| O=C(CCc1nc2ccccc2[nH]1)Nc1ccc2c(c1)OCC(=O)N2 | -11.6 |
| Cc1cc(-c2cnc(N3CCC(C(N)=O)CC3)nc2C(C)C)on1 | 9.37 |
| CC(C)(C)NC(=O)CNC(=O)c1cccnc1Oc1cccnc1 | -6.52 |
| CCOc1ncccc1CNC(=O)NCCNC(=O)c1ccco1 | -4.58 |
| COc1ccccc1Oc1ncccc1CNC(=O)CN1CCCC1=O | -4.31 |
| Cc1ccccc1NC(=O)Nc1c[nH]c(=O)[nH]c1=O | -9.84 |
| Cc1ccc(SC2CCCC2)c(C(=O)NCc2n[nH]c(=O)[nH]2)c1 | -11.2 |
| Cc1noc(C2CCN(C(=O)CCNc3ncccn3)CC2)n1 | -1.06 |
| Cc1cc(N2CCC(n3cc(CN4CCNCC4)nn3)CC2)ccn1 | 24.4 |
| COc1ccccc1CN1CCC(c2nn(CCN)c3nccnc23)C1 (centres undefined) | -0.747 |
